Assay results reported in patent publication US9920100B2, “Mimotopes of tropomyosin for use in immunotherapy for shellfish and/or arthropod allergy” (THE REGENTS OF THE UNIVERSITY OF CALIFORNIA, priority 2016, dated 2018).

Test system: Met e 1
Experiment: ELISA of Met e 1-specific IgG1 and IgG2a in serum of BALB/c mice immunized with mimotope-KLH conjugates
Format: in vivo, Metapenaeus ensis
Conditions: KLH conjugate in BALB/c mice; compared with the Met e 1 epitope (a.a. 251-270) positive control
Procedure: One mimotope peptide was chosen from each of clusters 1-6 (Table 3) and commercially synthesized (Genscript). The mimotopes were conjugated to keyhole limpet hemocyanin (KLH) using Imject EDC mcKLH Spin Kit (Thermo Scientific) according to manufacturer's instructions. Female BALB/c mice (n=4; 5-6 weeks) were immunized subcutaneously with a mimotope conjugate (50 μg in 200 μl PBS) emulsified in Complete Freund's adjuvant on day 0 and Incomplete Freund's adjuvant on days 14 and 21. Blood samples were collected on day 28 from tail vein of the mice. A Der p 1 mimotope (KGIPNTKAP) (Szalai et al., Mot Immunol, 2008; 45, 1308-1317) and an IgE epitope of Met e 1 ([…]; a.a. 251-270) were also included as negative and positive controls, respectively. All animal protocols were approved by the Animal Experimentation Ethics Committee, CUHK, in accordance with the Department of Health (Government of Hong Kong Special Administrative Region, HKSAR) guidelines in Care and Use of Animals. All experiments were performed under licenses granted from the HKSAR Government.
ELISA was performed as previously described (Wai et al., PLoS One, 2014; 9, e111649) to detect Met e 1-specific IgG antibodies. […] 100 μl of 0.1M sulfuric acid was added to each well to stop the reaction after 10 min of incubation and the optical density at 450 nm was determined using microplate reader (BioRad Model 680). […]

## GTKLQHFRQ (Synthetic Cluster 4 mimotope) [Cluster 4 mimotope of Met e 1; selected for in vivo verification]
  capacity to induce Met e 1-specific antibodies: lower capacity
